The source of these data is patent publication US20070123514A1, “Methods of modulating neurotrophin-mediated activity” (PainCeptor Pharma Corporation, priority 2005, published 2007).

“Also recorded” adds a separate entry of the source.

The subject of one assay is Male Sprague-Dawley rats. Put plainly: Seltzer or Partial Nerve Ligation (PNL) model of neuropathic pain, mechanical allodynia. It is filed as in vivo, rat. The note with it: 25 mg/kg i.p., 90 min post-treatment. The text has this: The Partial Nerve Ligation (PNL) model (Seltzer et al., Pain 1990; 43:205) was used to induce chronic neuropathic pain. Male Sprague-Dawley rats were anesthetized with isoflurane, and injury to the sciatic nerve was achieved by tying a tight ligature around ⅓ to ½ of the sciatic nerve just proximal to the nerve's trifurcation in the mid-thigh. Animals develop thermal and mechanical hyperalgesia and allodynia, as well as a long-lasting spontaneous pain or dysesthesia after the nerve injury.
Mechanical allodynia testing: Pre- and post-injury baselines as well as post-treatment values (vehicle or compound-treated animals) for mechanical allodynia were evaluated using Von Frey filaments (Stoelting, Wood Dale, Ill., USA) with varying stiffness. […] The mean and standard error of the mean (SEM) were determined for each paw in each treatment group (ipsilateral/injured paw and contralateral/non-injured paw). […] Effects of compounds were evaluated two weeks after the injury. Compound or vehicle was administered (i.p. or s.c.) and effects on mechanical allodynia were measured at different time points after dosing (e.g., 30, 60 and 90 min.).
Data analysis: Statistical analyses were conducted using Prism™ 4.01 (GraphPad, San Diego, Calif., USA). Mechanical hypersensitivity of the injured paw was determined by comparing contralateral to ipsilateral paw values within the vehicle group at each time point. […]

Assay [1] relates to NGF-induced Erk 1/2 phosphorylation in PC12 cells. Put plainly: Erk phosphorylation in NGF-stimulated PC12 cells (Western blot, ELISA). It is filed as cell-based, rat. The following applies: 1 ng/mL NGF, result in words. The protocol: This assay is useful for establishing that the compounds of the invention are functional NGF antagonists, not receptor agonists (an agonist could conceivably block NGF binding but actually activate the receptor). Erk 1/2 is a kinase activated down stream of TrkA and is a well studied member of the NGF-induced signal transduction cascade.
PC12 cells expressing TrkA and p75 were acutely exposed to 1 ng/mL NGF (15 min; 37° C.; 5% CO2) that was pre-incubated (30 min; room temperature) with or without the compounds. Cells were lysed in Laemmli sample buffer (for SDS-PAGE) or a lysis buffer containing Triton X-100 (for ELISA). Following SDS-PAGE, proteins were electroblotted onto nitrocellulose and immunoprobed for phosphorylated Erk 1 and 2. Blocking and primary antibody incubations of immunoblots were performed in Tris-buffered saline-Tween (10 mM Tris, pH 8.0, 150 mM NaCl, and 0.2% Tween 20) supplemented with 5% (w/v) bovine serum albumin (BSA); secondary antibody incubations were performed in 5% (w/v) dried skim milk powder. Immunoreactive bands were detected by chemiluminescence.
To detect phosphorylated Erk 1/2 by ELISA, a kit from R&D (Minneapolis, Minn.) Systems was used. […] The quantity of phosphoryated Erk 1/2 was quantified colorometrically with a standard HRP-streptavidin reaction.

On to `O=C(O)c1ccc(Cl)c(N2C(=O)c3cccc4cc([N+](=O)[O-])cc(c34)C2=O)c1` [Compound 5, 4-Chloro-3-(5-nitro-1,3-dioxo-1H,3H-benzo[de]isoquinolin-2-yl)-benzoic acid], for which the “antinociceptive effect / reversal of mechanical allodynia in partial nerve ligation model” value with Male Sprague-Dawley rats (result in words, 25 mg/kg) is listed as “significant reversal of the mechanical allodynia; also recorded: antinociceptive effects”. Moreover, the “mechanical allodynia, Von Frey response threshold of injured paw” value with Male Sprague-Dawley rats (vehicle 2.17±0.19 g, n=7) is 5.14 ± 0.36 g. Also, in assay [1], the “NGF-induced Erk 1/2 phosphorylation, ELISA” value is recorded as “inhibits NGF-induced Erk 1/2 phosphorylation” and the “NGF-induced Erk 1/2 phosphorylation, Western blot” value is given as “inhibits NGF-induced Erk 1/2 phosphorylation”.
